Results reported in patent US20250250230A1, “HETEROCYCLIC COMPOUND” (TAKEDA PHARMACEUTICAL COMPANY LIMITED, priority 2022, published 2025).

Molecular target: T1, human orexin type 2 receptor (Homo sapiens, UniProt O43614)
T1 construct: expressed in transfected cells
T1 sequence (O43614 1-444): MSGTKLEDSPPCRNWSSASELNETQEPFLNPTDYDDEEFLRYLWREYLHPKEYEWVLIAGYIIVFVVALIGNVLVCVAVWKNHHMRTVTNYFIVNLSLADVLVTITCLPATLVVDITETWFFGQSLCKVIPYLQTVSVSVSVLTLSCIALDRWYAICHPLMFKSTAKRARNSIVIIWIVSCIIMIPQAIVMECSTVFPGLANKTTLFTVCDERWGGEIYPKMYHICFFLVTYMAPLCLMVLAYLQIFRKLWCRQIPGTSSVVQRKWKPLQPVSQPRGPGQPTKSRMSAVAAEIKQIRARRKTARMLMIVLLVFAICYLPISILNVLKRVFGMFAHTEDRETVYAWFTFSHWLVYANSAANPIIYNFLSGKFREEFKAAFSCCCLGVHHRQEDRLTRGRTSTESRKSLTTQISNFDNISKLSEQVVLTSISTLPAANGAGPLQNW
Test: Measurement of orexin type 2 receptor agonist activity (calcium fluorescence, Fluo-4 AM, FDSS)
Type: cell-based
Conditions: test compound 3 μM; CHO cells expressing human OX2 receptor; DMSO = 0%, orexin A (human) = 100%
Outline: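 Agonist response scaled between vehicle (0%) and human orexin A at 10 nM final (100%), from 2-min kinetic Fluo-4 fluorescence reads. Stable hOX2R CHO-K1 clone, dye-loaded in HBSS/20 mM HEPES/0.1% BSA with 1.25 mM probenecid before compound addition.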

| OX2R agonist activity (3 μM, %) | Compound |
| --- | --- |
| 91% | Cc1scc(-c2c(F)cccc2F)c1C1CC1C(=O)N1CCC(NS(C)(=O)=O)C1 (racemic) [Example 329, a mixture of rac-N-[(3R)-1-{(1R,2R)-2-[4-(2,6-difluorophenyl)-2-methylthiophen-3-yl]cyclopropane-1-carbonyl}pyrrolidin-3-yl]methanesulfonamide and rac-N-[(3S)-1-{(1R,2R)-2-[4-(2,6-difluorophenyl)-2-methylthiophen-3-yl]cyclopropane-1-carbonyl}pyrrolidin-3-yl]methanesulfonamide] |
| 93% | CS(=O)(=O)N[C@H]1CCN(C(=O)C2CC2(F)c2ccccc2-c2c(F)cccc2F)C1 (single isomer, unassigned) [Example 304, N-{(3S)-1-[(1S,2S)-2-(2′,6′-difluoro [1,1′-biphenyl]-2-yl)-2-fluorocyclopropane-1-carbonyl]pyrrolidin-3-yl}methanesulfonamide, or N-{(3S)-1-[(1R,2R)-2-(2′,6′-difluoro[1,1′-biphenyl]-2-yl)-2-fluorocyclopropane-1-carbonyl]pyrrolidin-3-yl}methanesulfonamide] |
| 93% | CS(=O)(=O)N[C@H]1CCCN(C(=O)C2CC2(F)c2ccccc2-c2c(F)cccc2F)C1 (single isomer, unassigned) [Example 306, N-{(3S)-1-[(1S,2S)-2-(2′,6′-difluoro [1,1′-biphenyl]-2-yl)-2-fluorocyclopropane-1-carbonyl]piperidin-3-yl}methanesulfonamide, or N-{(3S)-1-[(1R,2R)-2-(2′,6′-difluoro[1,1′-biphenyl]-2-yl)-2-fluorocyclopropane-1-carbonyl]piperidin-3-yl}methanesulfonamide] |
| 101% | CCS(=O)(=O)NC[C@@H]1CCN1C(=O)[C@@H]1C[C@@]1(F)c1ccccc1-c1c(F)cccc1F (single isomer, unassigned) [Example 351, N-({(2R)-1-[(1S,2S)-2-(2′,6′-difluoro[1,1′-biphenyl]-2-yl)-2-fluorocyclopropane-1-carbonyl]azetidin-2-yl}methyl)ethanesulfonamide, or N-({(2S)-1-[(1S,2S)-2-(2′,6′-difluoro[1,1′-biphenyl]-2-yl)-2-fluorocyclopropane-1-carbonyl]azetidin-2-yl}methyl)ethanesulfonamide] |
| 94% | CN(C)S(=O)(=O)NCC1CN(C(=O)[C@@H]2C[C@H]2c2ccccc2-c2c(F)cccc2F)CCO1 (stereo in doubt) [Example 284, N′-({(2R)-4-[(1R,2R)-2-(2′,6′-difluoro[1,1′-biphenyl]-2-yl)cyclopropane-1-carbonyl]morpholin-2-yl}methyl)-N,N-dimethylsulfuric diamide] |
| 95% | COC[C@@H]1CN(C(=O)[C@@H]2C[C@@]2(F)c2ccccc2-c2c(F)cccc2F)C1CNS(C)(=O)=O (stereo in doubt) [Example 399, N-{[(2R,3R)-1-[(1S,2S)-2-(2′,6′-difluoro[1,1′-biphenyl]-2-yl)-2-fluorocyclopropane-1-carbonyl]-3-(methoxymethyl)azetidin-2-yl]methyl}methanesulfonamide] |
| 98% | CS(=O)(=O)N[C@@H]1CN(C(=O)C2CC2c2ccccc2-c2c(F)cccc2F)CCC1(F)F (stereo partly drawn) [Example 215, N-{(3R)-1-[(1R,2R)-2-(2′,6′-difluoro [1,1′-biphenyl]-2-yl)cyclopropane-1-carbonyl]-4,4-difluoropiperidin-3-yl}methanesulfonamide, or N-{(3R)-1-[(1S,2S)-2-(2′,6′-difluoro[1,1′-biphenyl]-2-yl)cyclopropane-1-carbonyl]-4,4-difluoropiperidin-3-yl}methanesulfonamide] |
| 99% | CS(=O)(=O)N[C@@H]1CN(C(=O)C2CC2c2ccccc2-c2c(F)cccc2F)CC[C@@H]1F (stereo partly drawn) [Example 216, N-{(3R,4S)-1-[(1R,2R)-2-(2′,6′-difluoro[1,1′-biphenyl]-2-yl)cyclopropane-1-carbonyl]-4-fluoropiperidin-3-yl}methanesulfonamide, or N-{(3R,4S)-1-[(1S,2S)-2-(2′,6′-difluoro[1,1′-biphenyl]-2-yl)cyclopropane-1-carbonyl]-4-fluoropiperidin-3-yl}methanesulfonamide] |
| 104% | CS(=O)(=O)NC1CN(C(=O)C2CC2c2c(F)cccc2-c2c(F)cccc2F)CC1(F)F (stereo not drawn) [Example 226, N-{4,4-difluoro-1-[2-(2′,3,6′-trifluoro[1,1′-biphenyl]-2-yl)cyclopropane-1-carbonyl]pyrrolidin-3-yl}methanesulfonamide optical isomer] |
| 103% | CS(=O)(=O)N[C@H]1C[C@@H](F)CN(C(=O)[C@@H]2C[C@H]2c2ccccc2-c2c(F)cccc2F)C1 [Example 232, N-{(3S,5R)-1-[(1R,2R)-2-(2′,6′-difluoro[1,1′-biphenyl]-2-yl)cyclopropane-1-carbonyl]-5-fluoropiperidin-3-yl}methanesulfonamide] |

Continued, molecule first:

| Compound | OX2R agonist activity (3 μM, %) |
| --- | --- |
| CS(=O)(=O)N[C@H]1CCN(C(=O)C2CC2c2c(F)cccc2-c2c(F)cccc2F)C1 (single isomer, unassigned) [Example 195, N-{(3S)-1-[(1R,2R)-2-(2′,3,6′-trifluoro[1,1′-biphenyl]-2-yl)cyclopropane-1-carbonyl]pyrrolidin-3-yl}methanesulfonamide, or N-{(3S)-1-[(1S,2S)-2-(2′,3,6′-trifluoro[1,1′-biphenyl]-2-yl)cyclopropane-1-carbonyl]pyrrolidin-3-yl}methanesulfonamide] | 99% |
| CS(=O)(=O)N[C@H]1CCN(C(=O)C2CC2c2ccc(F)cc2-c2c(F)cccc2F)C1 (single isomer, unassigned) [Example 200, N-{(3S)-1-[(1R,2R)-2-(2′,5,6′-trifluoro[1,1′-biphenyl]-2-yl)cyclopropane-1-carbonyl]pyrrolidin-3-yl}methanesulfonamide, or N-{(3S)-1-[(1S,2S)-2-(2′,5,6′-trifluoro[1,1′-biphenyl]-2-yl)cyclopropane-1-carbonyl]pyrrolidin-3-yl}methanesulfonamide] | 103% |
| CS(=O)(=O)N[C@H]1CCN(C(=O)[C@@H]2C[C@H]2c2ccccc2-c2c(F)cccc2F)C1 [Example 23, N-{(3S)-1-[(1R,2R)-2-(2′,6′-difluoro[1,1′-biphenyl]-2-yl)cyclopropane-1-carbonyl]pyrrolidin-3-yl}methanesulfonamide] | 105% |
| CS(=O)(=O)N[C@H]1CCCN(C(=O)[C@@H]2C[C@H]2c2ccccc2-c2c(F)cccc2F)C1 [Example 24, N-{(3S)-1-[(1R,2R)-2-(2′,6′-difluoro [1,1′-biphenyl]-2-yl)cyclopropane-1-carbonyl]piperidin-3-yl}methanesulfonamide] | 95% |
| CS(=O)(=O)N[C@H]1CCCN(C(=O)[C@@H]2C[C@H]2c2ccccc2-c2c(F)cccc2F)CC1 [Example 25, N-{(4S)-1-[(1R,2R)-2-(2′,6′-difluoro[1,1′-biphenyl]-2-yl)cyclopropane-1-carbonyl]azepan-4-yl}methanesulfonamide] | 93% |
| CS(=O)(=O)NC1CN(C(=O)C2CC2c2ccccc2-c2c(F)cccc2F)CC1(F)F (stereo not drawn) [Example 180, N-{1-[2-(2′,6′-difluoro[1,1′-biphenyl]-2-yl)cyclopropane-1-carbonyl]-4,4-difluoropyrrolidin-3-yl}methanesulfonamide optical isomer] | 95% |
| CS(=O)(=O)N[C@H]1CCCN(C(=O)C2CC2c2c(F)cccc2-c2c(F)cccc2F)C1 (stereo partly drawn) [Example 196, N-{(3S)-1-[(1R,2R)-2-(2′,3,6′-trifluoro[1,1′-biphenyl]-2-yl)cyclopropane-1-carbonyl]piperidin-3-yl}methanesulfonamide, or N-{(3S)-1-[(1S,2S)-2-(2′,3,6′-trifluoro[1,1′-biphenyl]-2-yl)cyclopropane-1-carbonyl]piperidin-3-yl}methanesulfonamide] | 101% |
| CS(=O)(=O)N[C@H]1CCCN(C(=O)C2CC2c2ccc(F)cc2-c2c(F)cccc2F)C1 (stereo partly drawn) [Example 201, N-{(3S)-1-[(1R,2R)-2-(2′,5,6′-trifluoro[1,1′-biphenyl]-2-yl)cyclopropane-1-carbonyl]piperidin-3-yl}methanesulfonamide, or N-{(3S)-1-[(1S,2S)-2-(2′,5,6′-trifluoro[1,1′-biphenyl]-2-yl)cyclopropane-1-carbonyl]piperidin-3-yl}methanesulfonamide] | 101% |
| CS(=O)(=O)NC1CCN(C(=O)C2CC2c2c(F)cccc2-c2c(F)cccc2F)C1 (stereo not drawn) [Example 210, N-{1-[2-(2′,3,6′-trifluoro[1,1′-biphenyl]-2-yl)cyclopropane-1-carbonyl]pyrrolidin-3-yl}methanesulfonamide optical isomer] | 94% |
| CS(=O)(=O)NC1CCCN(C(=O)C2CC2c2c(F)cccc2-c2c(F)cccc2F)C1 (stereo not drawn) [Example 211, N-{1-[2-(2′-3,6′-trifluoro[1,1′-biphenyl]-2-yl)cyclopropane-1-carbonyl]piperidin-3-yl}methanesulfonamide optical isomer] | 105% |
